{"source": "patent US6811967B2", "about": "(The University of Manitoba, priority 2001, dated 2004)", "origin": "cited, not measured here", "key": {"[1]": {"molecular_target": "T1, human SSAT (Homo sapiens, UniProt P21673)", "T1 construct": "host or cells: E. coli", "T1 sequence (P21673 whole entry)": "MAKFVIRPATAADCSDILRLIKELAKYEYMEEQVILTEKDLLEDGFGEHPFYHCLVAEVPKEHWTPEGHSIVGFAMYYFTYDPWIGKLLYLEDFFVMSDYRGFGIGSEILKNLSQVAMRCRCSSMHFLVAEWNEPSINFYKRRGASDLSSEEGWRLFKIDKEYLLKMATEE", "conditions": "human SSAT expressed in E. coli (Parry et al. 1995)"}, "[2]": {"conditions": "weak base, primary amine"}, "[3]": {"conditions": "Sprague-Dawley rats, same therapeutic dose (Goralski et al. 1999)"}}}
{"compound": "N=C(N)NCCCCCCC(=O)NC(O)C(=O)NCCCCNCCCN", "note": "(centres unmarked) [1-deoxyspergualin]", "values": [{"measurement": "acetylation by SSAT", "setting": "[1]", "result": "acetylated by SSAT"}]}
{"compound": "CCCCNCCCN", "note": "[N-(n-butyl)-1,3-diaminopropane]", "values": [{"measurement": "acetylation by SSAT", "setting": "[1]", "result": "acetylated by SSAT"}]}
{"compound": "NCCCNCCS", "note": "[WR1065, S-2-(3-aminopropylamino) ethanethiol]", "values": [{"measurement": "acetylation by SSAT", "setting": "[1]", "result": "acetylated by SSAT"}]}
{"compound": "NC12CC3CC(CC(C3)C1)C2", "note": "[amantadine, 1-adamantanamine]", "values": [{"measurement": "pKa", "setting": "[2]", "result": 10.1}, {"measurement": "urinary excretion of acetylamantadine", "setting": "[3]", "result": "did not excrete acetylamantadine"}]}
